Source: patent US20080221086A1, “Novel Inhibitors of Glutaminyl Cyclase” (PROBIODRUG AG, priority 2006, published 2008)

molecular target: hQC (Homo sapiens, UniProt Q16769); test: Fluorometric assay of glutaminyl cyclase (QC) inhibition, H-Gln-βNA or H-Gln-AMC substrate; assay type: biochemical; details: compound from preparative synthesis, purified by chromatography; fluorescent assay; read-out: IC50 hQC
Protocol: All compounds were immediately tested regarding their activity as hQC inhibitors.
The purity of the compounds was determined by HPLC-MS. The IC50 value against hQC was measured using the fluorescent assay.
All measurements were performed with a BioAssay Reader HTS-7000Plus for microplates (Perkin Elmer) at 30° C. QC activity was evaluated fluorometrically using H-Gln-βNA. The samples consisted of 0.2 mM fluorogenic substrate, 0.25 U pyroglutamyl aminopeptidase (Unizyme, Hørsholm, Denmark) in 0.2 M Tris/HCl, pH 8.0 containing 20 mM EDTA and an appropriately diluted aliquot of QC in a final volume of 250 μl. Excitation/emission wavelengths were 320/410 nm. The assay reactions were initiated by addition of glutaminyl cyclase. QC activity was determined from a standard curve of β-naphthylamine under assay conditions. One unit is defined as the amount of QC catalyzing the formation of 1 μmol pGlu-βNA from H-Gln-βNA per minute under the described conditions.
In a second fluorometric assay, QC was activity was determined using H-Gln-AMC as substrate. Reactions were carried out at 30° C. utilizing the NOVOStar reader for microplates (BMG labtechnologies). The samples consisted of varying concentrations of the fluorogenic substrate, 0.1 U pyroglutamyl aminopeptidase (Qiagen) in 0.05 M Tris/HCl, pH 8.0 containing 5 mM EDTA and an appropriately diluted aliquot of QC in a final volume of 250 μl. Excitation/emission wavelengths were 380/460 nm. The assay reactions were initiated by addition of glutaminyl cyclase. QC activity was determined from a standard curve of 7-amino-4-methylcoumarin under assay conditions. The kinetic data were evaluated using GraFit software.
For inhibitor testing, the sample composition was the same as described above, except of the putative inhibitory compound added. For a rapid test of QC-inhibition, samples contained 4 mM of the respective inhibitor and a substrate concentration at 1 KM. For detailed investigations of the inhibition and determination of Ki-values, influence of the inhibitor on the auxiliary enzymes was investigated first. In every case, there was no influence on either enzyme detected, thus enabling the reliable determination of the QC inhibition. The inhibitory constant was evaluated by fitting the set of progress curves to the general equation for competitive inhibition using GraFit software.

Chain of hQC (Q16769 29-361): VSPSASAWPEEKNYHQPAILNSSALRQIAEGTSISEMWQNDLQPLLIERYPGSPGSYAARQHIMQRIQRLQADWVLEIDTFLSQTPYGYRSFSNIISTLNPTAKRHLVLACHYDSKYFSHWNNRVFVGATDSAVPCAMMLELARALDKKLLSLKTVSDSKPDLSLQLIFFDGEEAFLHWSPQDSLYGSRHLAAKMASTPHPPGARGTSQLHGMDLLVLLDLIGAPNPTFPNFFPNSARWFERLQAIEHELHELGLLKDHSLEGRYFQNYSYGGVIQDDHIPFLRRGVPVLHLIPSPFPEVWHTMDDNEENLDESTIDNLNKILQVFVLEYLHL

IC50 [µM] | SMILES
0.482 | O=C1N/C(=N/CCc2c[nH]c3ccccc23)C(c2ccccc2Cl)N1CCCn1ccnc1 (centres unmarked) [Compound 55, 5-(2-Chloro-phenyl)-1-(3-imidazol-1-yl-propyl)-4-2-(1H-indol-3-yl)-ethylimino-imidazolidin-2-one]
0.452 | O=C1N/C(=N/CCc2c[nH]c3ccccc23)C(c2ccccc2F)N1CCCn1ccnc1 (centres unmarked) [Compound 61, 5-(2-Fluoro-phenyl)-1-(3-imidazol-1-yl-propyl)-4-(2-(1H-indol-3-yl)-ethylimino)-imidazolidin-2-one]

same assay, conditions: read-out: IC50

SMILES | IC50 [µM]
O=C1N/C(=N/CCc2c[nH]c3ccccc23)C(c2ccccc2Cl)N1CCCn1ccnc1 (centres unmarked) [Compound 55, 5-(2-Chloro-phenyl)-1-(3-imidazol-1-yl-propyl)-4-2-(1H-indol-3-yl)-ethylimino-imidazolidin-2-one] | 2.2
O=C1N/C(=N\c2ccc3c(c2)OCCO3)C(c2ccc3c(c2)OCCO3)N1c1ccc2[nH]cnc2c1 (centres unmarked) [Compound 235, 1-(1H-Benzoimidazol-5-yl)-5-(2,3-dihydro-benzo1,4dioxin-6-yl)-4-2,3-dihydro-benzo1,4dioxin-6-ylimino-imidazolidin-2-one] | 0.004
O=C1N/C(=N\CCC(c2ccccc2)c2ccccc2)C(c2ccccc2F)N1CCCn1ccnc1 (centres unmarked) [Compound 112, 4-3,3-Diphenyl-propylimino-5-(2-fluoro-phenyl)-1-(3-imidazol-1-yl-propyl)-imidazolidin-2-one] | 6.7
O=C1N/C(=N\CCC(c2ccccc2)c2ccccc2)C(c2ccccc2)N1CCCn1ccnc1 (centres unmarked) [Compound 105, 4-3,3-Diphenyl-propylimino-1-(3-imidazol-1-yl-propyl)-5-phenyl-imidazolidin-2-one] | 3.1
O=C1N/C(=N/CCCc2ccccc2)C(c2cc3ccccc3s2)N1c1ccc2[nH]cnc2c1 (centres unmarked) [Compound 172, 5-Benzobthiophen-2-yl-1-(1H-Benzoimidazol-5-yl)-4-3-phenyl-propylimino-imidazolidin-2-one] | 1.3
Cc1ccc(C2/C(=N/c3c(Cl)cccc3Cl)NC(=S)N2c2ccc3nc[nH]c3c2)cc1 (centres unmarked) [Compound 237, 1-(3H-Benzoimidazol-5-yl)-4-2,6-dichloro-phenylimino-5-p-tolyl-imidazolidine-2-thione] | 7.6
OC(CN=C1NC(=S)N(c2ccc3[nH]cnc3c2)C1c1cc(F)cc(F)c1)c1ccccc1 (centres unmarked) [Compound 229, 1-(1H-Benzoimidazol-5-yl)-5-(3,5-difluoro-phenyl)-4-2-hydroxy-2-phenyl-ethylimino-imidazolidine-2-thione] | 8.5
CCCC/N=C1\NC(=O)N(CCCn2ccnc2)C1c1cccc(F)c1F (centres unmarked) [Compound 36, 4-Butylimino-5-(2,3-difluoro-phenyl)-1-(3-imidazol-1-ylpropyl)-imidazolidin-2-one] | 6.7
O=C1N/C(=N/CCc2c[nH]c3ccccc23)C(c2ccccc2F)N1CCCn1ccnc1 (centres unmarked) [Compound 61, 5-(2-Fluoro-phenyl)-1-(3-imidazol-1-yl-propyl)-4-(2-(1H-indol-3-yl)-ethylimino)-imidazolidin-2-one] | 2.2

More lines, in order of falling IC50, values ahead:

IC50 [µM] | SMILES
9.4 | S=C1NC(=NC2CCc3ccccc32)C(c2ccnc3ccccc23)N1c1ccc2[nH]cnc2c1 (centres unmarked) [Compound 191, 1-(1H-Benzoimidazol-5-yl)-4-indan-1-ylimino-5-quinolin-4-yl-imidazolidine-2-thione]
6.7 | CC(C)CC(C)N=C1NC(=O)N(c2ccc3[nH]cnc3c2)C1c1ccccc1C(F)(F)F (centres unmarked) [Compound 298, 1-(1H-Benzoimidazol-5-yl)-4-1,3-dimethyl-butylimino-5-(2-trifluoromethyl-phenyl)-imidazolidin-2-one]
5.8 | CC(C)(C)CC(C)(C)/N=C1\CN(c2ccc3nc[nH]c3c2)C(=S)N1 [Compound 286, 1-(3H-Benzoimidazol-5-yl)-4-1,1,3,3-tetramethyl-butylimino-imidazolidine-2-thione]
3.1 | O=c1c(C2/C(=N/c3cc(Cl)ccc3Cl)NC(=S)N2c2ccc3[nH]cnc3c2)coc2ccccc12 (centres unmarked) [Compound 192, 3-{3-(1H-Benzoimidazol-5-yl)-5-2,5-dichloro-imidazolidin-4-yl}-chromen-4-one]
0.4 | Cc1ccc2occ(C3/C(=N/CCCc4ccccc4)NC(=O)N3c3ccc4[nH]cnc4c3)c(=O)c2c1 (centres unmarked) [Compound 239, 1-(1H-Benzoimidazol-5-yl)-5-(6-methyl-4-oxo-4H-chromen-3-yl)-4-(3-phenyl-propylimino)-imidazolidin-2-one]
0.004 | C/N=C1/NC(=O)N(c2ccc3[nH]cnc3c2)C1c1ccc2[nH]ccc2c1 (centres unmarked) [Compound 116, 1-(1H-Benzoimidazol-5-yl)-5-(1H-indol-5-yl)-4-methylimino-imidazolidin-2-one]
